Data published in ChEMBL document CHEMBL2406938, “Inhibitors of the renal outer medullary potassium channel” (ACS Med Chem Lett, 2013).

What was measured:
[1] = biological target: T1, ATP-sensitive inward rectifier potassium channel 1 (Homo sapiens) (UniProt P48048); test: Inhibition of human Kir1.1 expressed in CHO cells by whole cell voltage clamp assay; assay type: cell-based
T1 sequence (whole entry): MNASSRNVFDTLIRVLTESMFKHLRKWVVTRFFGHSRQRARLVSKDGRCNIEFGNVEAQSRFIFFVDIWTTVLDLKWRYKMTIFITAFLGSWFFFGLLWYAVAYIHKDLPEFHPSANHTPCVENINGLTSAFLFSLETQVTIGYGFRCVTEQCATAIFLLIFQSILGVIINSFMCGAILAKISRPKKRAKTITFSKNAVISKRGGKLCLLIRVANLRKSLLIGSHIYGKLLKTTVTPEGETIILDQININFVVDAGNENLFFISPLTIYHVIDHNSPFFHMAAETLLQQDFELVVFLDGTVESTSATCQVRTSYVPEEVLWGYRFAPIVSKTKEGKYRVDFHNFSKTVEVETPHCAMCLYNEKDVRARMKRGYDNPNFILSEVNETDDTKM

[2] = biological target: T1, ATP-sensitive inward rectifier potassium channel 1 (Homo sapiens); test: Inhibition of human Kir1.1 expressed in HEK293 cells by thallium flux assay; assay type: cell-based

INH [1] [µM] | INH [2] [µM] | Structure (SMILES)
0.06 | – | O=C1OCc2cc([C@H]3CN4CCN(C(=O)C5CCc6cc(-n7cnnn7)ncc65)C[C@H]4CO3)ccc21 (stereo not given in full)
0.09 | 0.11 | O=C1OCc2cc([C@@H]3CN4CCN(C(=O)C5CCc6nc(-n7cnnn7)ccc65)C[C@H]4CO3)ccc21 (stereo not given in full)
0.04 | 0.16 | N#Cc1c(F)ccc([C@@H]2CN3CCN(C(=O)C4CCc5cc(-n6cnnn6)ncc54)C[C@H]3CO2)c1F (stereo not given in full)

Continued, molecule first:

Structure (SMILES) | INH [1] [µM] | INH [2] [µM]
Cc1c([C@H]2CN3CCN(C(=O)C4CCc5nc(-n6cnnn6)ccc54)C[C@H]3CN2)ccc(F)c1C#N (stereo not given in full) | 0.09 | 0.16
Cc1c([C@@H]2CN3CCN(C(=O)C4CCc5nc(-n6cnnn6)ccc54)C[C@H]3CO2)ccc(F)c1C#N (stereo not given in full) | 0.08 | 0.14
Cc1c([C@@H]2CN3CCN(C(=O)C4CCc5nc(-n6cnnn6)ccc54)C[C@H]3CO2)csc1C#N (stereo not given in full) | 0.06 | 0.54
Cc1c([C@H]2CN3CCN(C(=O)C4CCc5cc(-n6cnnn6)ncc54)C[C@H]3CN2)ccc(F)c1C#N (stereo not given in full) | 0.1 | 0.18
N#Cc1c(F)ccc([C@@H]2CN3CCN(C(=O)C4CCc5nc(-n6cnnn6)ncc54)C[C@@H]3CO2)c1Cl (stereo not given in full) | 0.06 | 0.17
